Measured values: ChEMBL document CHEMBL4808193, “[11]-Chaetoglobosins from Pseudeurotium bakeri Induce G2/M Cell Cycle Arrest and Apoptosis in Human Cancer Cells” (J Nat Prod, 2021)

Tests used:
A549 = experiment: Cytotoxicity against human A549 cells assessed as reduction in cell viability by MTT assay; type: functional, cell-based
A-427 [1] = experiment: Cytotoxicity against human A-427 cells assessed as reduction in cell viability by MTT assay; type: functional, cell-based
HCT-116 = experiment: Cytotoxicity against human HCT-116 cells assessed as reduction in cell viability by MTT assay; type: functional, cell-based
HT-29 = experiment: Cytotoxicity against human HT-29 cells assessed as reduction in cell viability by MTT assay; type: functional, cell-based
MCF7 [2] = experiment: Cytotoxicity against human MCF7 cells assessed as reduction in cell viability by MTT assay; type: functional, cell-based
HeLa = experiment: Cytotoxicity against human HeLa cells assessed as reduction in cell viability by MTT assay; type: functional, cell-based
HepG2 = experiment: Cytotoxicity against human HepG2 cells assessed as reduction in cell viability by MTT assay; type: functional, cell-based
L02 = experiment: Cytotoxicity against human L02 cells assessed as reduction in cell viability by MTT assay; type: cell-based
A-427 [3] = experiment: Induction of apoptosis in human A-427 cells assessed as late apoptotic cells at 6 uM measured after 24 hrs by Annexin V-FITC/propidium iodide staining based flow cytometric analysis (reference value: 1.70%); type: functional
A-427 [4] = experiment: Induction of apoptosis in human A-427 cells assessed as late apoptotic cells at 4 uM measured after 24 hrs by Annexin V-FITC/propidium iodide staining based flow cytometric analysis (reference value: 1.70%); type: functional
A-427 [5] = experiment: Induction of apoptosis in human A-427 cells assessed as late apoptotic cells at 2 uM measured after 24 hrs by Annexin V-FITC/propidium iodide staining based flow cytometric analysis (reference value: 1.70%); type: functional
A-427 [6] = experiment: Induction of apoptosis in human A-427 cells assessed as early apoptotic cells at 6 uM measured after 24 hrs by Annexin V-FITC/propidium iodide staining based flow cytometric analysis (reference value: 4.50%); type: functional
A-427 [7] = experiment: Induction of apoptosis in human A-427 cells assessed as early apoptotic cells at 4 uM measured after 24 hrs by Annexin V-FITC/propidium iodide staining based flow cytometric analysis (reference value: 4.50%); type: functional
A-427 [8] = experiment: Induction of apoptosis in human A-427 cells assessed as early apoptotic cells at 2 uM measured after 24 hrs by Annexin V-FITC/propidium iodide staining based flow cytometric analysis (reference value: 4.50%); type: functional
MCF7 [9] = experiment: Induction of apoptosis in human MCF7 cells assessed as late apoptotic cells at 15 uM measured after 24 hrs by Annexin V-FITC/propidium iodide staining based flow cytometric analysis (reference value: 0.76%); type: functional
MCF7 [10] = experiment: Induction of apoptosis in human MCF7 cells assessed as late apoptotic cells at 10 uM measured after 24 hrs by Annexin V-FITC/propidium iodide staining based flow cytometric analysis (reference value: 0.76%); type: functional
MCF7 [11] = experiment: Induction of apoptosis in human MCF7 cells assessed as late apoptotic cells at 5 uM measured after 24 hrs by Annexin V-FITC/propidium iodide staining based flow cytometric analysis (reference value: 0.76%); type: functional
MCF7 [12] = experiment: Induction of apoptosis in human MCF7 cells assessed as early apoptotic cells at 15 uM measured after 24 hrs by Annexin V-FITC/propidium iodide staining based flow cytometric analysis (reference value: 2.97%); type: functional
MCF7 [13] = experiment: Induction of apoptosis in human MCF7 cells assessed as early apoptotic cells at 10 uM measured after 24 hrs by Annexin V-FITC/propidium iodide staining based flow cytometric analysis (reference value: 2.97%); type: functional
MCF7 [14] = experiment: Induction of apoptosis in human MCF7 cells assessed as early apoptotic cells at 5 uM measured after 24 hrs by Annexin V-FITC/propidium iodide staining based flow cytometric analysis (reference value: 2.97%); type: functional
A-427 [15] = experiment: Cell cycle arrest in human A-427 cells assessed as accumulation at G2/M phase at 6 uM measured after 24 hrs by PI staining based flow cytometry (reference value: 17.34%); type: functional
A-427 [16] = experiment: Cell cycle arrest in human A-427 cells assessed as accumulation at S phase at 6 uM measured after 24 hrs by PI staining based flow cytometry (reference value: 37.30%); type: functional
A-427 [17] = experiment: Cell cycle arrest in human A-427 cells assessed as accumulation at G0/G1 phase at 6 uM measured after 24 hrs by PI staining based flow cytometry (reference value: 45.36%); type: functional
A-427 [18] = experiment: Cell cycle arrest in human A-427 cells assessed as accumulation at G2/M phase at 4 uM measured after 24 hrs by PI staining based flow cytometry (reference value: 17.34%); type: functional
A-427 [19] = experiment: Cell cycle arrest in human A-427 cells assessed as accumulation at S phase at 4 uM measured after 24 hrs by PI staining based flow cytometry (reference value: 37.30%); type: functional
A-427 [20] = experiment: Cell cycle arrest in human A-427 cells assessed as accumulation at G0/G1 phase at 4 uM measured after 24 hrs by PI staining based flow cytometry (reference value: 45.36%); type: functional
A-427 [21] = experiment: Cell cycle arrest in human A-427 cells assessed as accumulation at G2/M phase at 2 uM measured after 24 hrs by PI staining based flow cytometry (reference value: 17.34%); type: functional
A-427 [22] = experiment: Cell cycle arrest in human A-427 cells assessed as accumulation at S phase at 2 uM measured after 24 hrs by PI staining based flow cytometry (reference value: 37.30%); type: functional
A-427 [23] = experiment: Cell cycle arrest in human A-427 cells assessed as accumulation at G0/G1 phase at 2 uM measured after 24 hrs by PI staining based flow cytometry (reference value: 45.36%); type: functional
MCF7 [24] = experiment: Cell cycle arrest in human MCF7 cells assessed as accumulation at G2/M phase at 15 uM measured after 24 hrs by PI staining based flow cytometry (reference value: 14.79%); type: functional
MCF7 [25] = experiment: Cell cycle arrest in human MCF7 cells assessed as accumulation at S phase at 15 uM measured after 24 hrs by PI staining based flow cytometry (reference value: 22.83%); type: functional
MCF7 [26] = experiment: Cell cycle arrest in human MCF7 cells assessed as accumulation at G0/G1 phase at 15 uM measured after 24 hrs by PI staining based flow cytometry (reference value: 62.38%); type: functional
MCF7 [27] = experiment: Cell cycle arrest in human MCF7 cells assessed as accumulation at G2/M phase at 10 uM measured after 24 hrs by PI staining based flow cytometry (reference value: 14.79%); type: functional
MCF7 [28] = experiment: Cell cycle arrest in human MCF7 cells assessed as accumulation at S phase at 10 uM measured after 24 hrs by PI staining based flow cytometry (reference value: 22.83%; type: functional
MCF7 [29] = experiment: Cell cycle arrest in human MCF7 cells assessed as accumulation at G0/G1 phase at 10 uM measured after 24 hrs by PI staining based flow cytometry (reference value: 62.38%); type: functional
MCF7 [30] = experiment: Cell cycle arrest in human MCF7 cells assessed as accumulation at G2/M phase at 5 uM measured after 24 hrs by PI staining based flow cytometry (reference value: 14.79%); type: functional
MCF7 [31] = experiment: Cell cycle arrest in human MCF7 cells assessed as accumulation at S phase at 5 uM measured after 24 hrs by PI staining based flow cytometry (reference value: 22.83%); type: functional
MCF7 [32] = experiment: Cell cycle arrest in human MCF7 cells assessed as accumulation at G0/G1 phase at 5 uM measured after 24 hrs by PI staining based flow cytometry (reference value: 62.38%); type: functional

In the case of CC1=C[C@@H]2/C=C/C[C@H](C)CC(=O)/C=C/C(=O)[C@]23C(=O)N[C@@H](Cc2c[nH]c4ccccc24)[C@@H]3[C@@H]1C, the IC50 (A549) is reported as 9.5 µM, the IC50 (A-427 [1]) is reported as 4.8 µM and the IC50 (HCT-116) is reported as 12.2 µM. It also gave an IC50 (HT-29) of 8.9 µM, an IC50 (MCF7 [2]) of 6.5 µM and an IC50 (HeLa) of 8.6 µM. The IC50 (HepG2) was 9.1 µM, the IC50 (L02) was 36.3 µM and the Activity (A-427 [3]) was 29.64%. For the same compound, the Activity (A-427 [4]) was 25.77%, the Activity (A-427 [5]) was 14.29% and the Activity (A-427 [6]) was 24.44%. It also gave an Activity (A-427 [7]) of 19.74%, an Activity (A-427 [8]) of 8.26% and an Activity (MCF7 [9]) of 13.22%. It also gave an Activity (MCF7 [10]) of 6.99%, an Activity (MCF7 [11]) of 5.79% and an Activity (MCF7 [12]) of 32.79%. For the same compound, the Activity (MCF7 [13]) was 19.17%, the Activity (MCF7 [14]) was 11.22% and the Activity (A-427 [15]) was 49.58%. The Activity (A-427 [16]) was 16.51%, the Activity (A-427 [17]) was 33.91% and the Activity (A-427 [18]) was 47.21%. It also gave an Activity (A-427 [19]) of 16.28%, an Activity (A-427 [20]) of 36.51% and an Activity (A-427 [21]) of 36.13%. It also gave an Activity (A-427 [22]) of 19.88%, an Activity (A-427 [23]) of 43.99% and an Activity (MCF7 [24]) of 55.69%. It also gave an Activity (MCF7 [25]) of 8.11%, an Activity (MCF7 [26]) of 36.2% and an Activity (MCF7 [27]) of 51.9%. For the same compound, the Activity (MCF7 [28]) was 7.12%, the Activity (MCF7 [29]) was 40.98% and the Activity (MCF7 [30]) was 42.67%. It also gave an Activity (MCF7 [31]) of 8.32% and an Activity (MCF7 [32]) of 49.01%.
